The source of these data is patent US9238631B2, “Radiolabeled amino acids for diagnostic imaging” (PIRAMAL IMAGING SA, priority 2011, dated 2016).

The test system of one data set is A549 tumor. The note with it: cited from earlier work.
Data set [1] relates to NCI-H460 (human NSCLC) cells. Briefly: Time-dependent uptake and blocking of [^18F]-41 in NCI-H460 cells. In kind it is cell-based. The note with it: co-incubation with 1 mM 41, 30 minutes. How it is done: NCI-H460 (human NSCLC) cells, grown adherently in 48 well plates were used for these experiments. Approximately 100.000 cells were incubated in PBS-buffer containing 0.1% BSA with 0.25 MBq [^18F]-41 for up to 60 minutes. A time-dependent uptake was observed during the 60 min incubation period. Approximately 13% of applied dose was taken up by the cells during the 60 min incubation period (FIG. 6). For the blocking study [^18F]-41 was co-incubated with 1 mM 41 for 30 minutes. After this time, the cell bound radioactivity was determined.

The next data set has as its system reactive lymph nodes. As to the kind of experiment: PET uptake in inflammatory lesions (streptozotocin-induced reactive lymph nodes). In kind it is in vivo, mice. As to conditions: dynamic PET 1 h, 3 days after streptozotocin. How it is done:
To test the specificity of compounds from the present invention, compound [^18F]-41 was examined in an animal model of reactive lymph nodes in comparison to the clinically commonly used PET tracer FDG. Therefore, female immunocompetent NMRI mice (10 weeks old) were injected with streptozotocin (500 μg/40 μL PBS) in the right hind limb to induce an inflammatory reaction in the right popliteal and additional lymph nodes. PET imaging studies were performed 3 days after Streptozotocin injection. PET images were acquired dynamically for 1 h after injection of approximately 5-10 MBq. After the imaging study, region-of-interest (ROI) analysis was performed in the popliteal, inguinal and iliacal lymph nodes. At least 3 animals were examined per tracer.

In another data set the target is T1, xCT (SLC7A11) (Homo sapiens, UniProt Q9UPY5).
T1 construct: NCI-H460 tumor cells were co-incubated with the F-18 labeled tracer and several cold derivatives; endogenous in cells; host or cells: NCI-H460 tumor cells
T1 sequence (Q9UPY5 1-501): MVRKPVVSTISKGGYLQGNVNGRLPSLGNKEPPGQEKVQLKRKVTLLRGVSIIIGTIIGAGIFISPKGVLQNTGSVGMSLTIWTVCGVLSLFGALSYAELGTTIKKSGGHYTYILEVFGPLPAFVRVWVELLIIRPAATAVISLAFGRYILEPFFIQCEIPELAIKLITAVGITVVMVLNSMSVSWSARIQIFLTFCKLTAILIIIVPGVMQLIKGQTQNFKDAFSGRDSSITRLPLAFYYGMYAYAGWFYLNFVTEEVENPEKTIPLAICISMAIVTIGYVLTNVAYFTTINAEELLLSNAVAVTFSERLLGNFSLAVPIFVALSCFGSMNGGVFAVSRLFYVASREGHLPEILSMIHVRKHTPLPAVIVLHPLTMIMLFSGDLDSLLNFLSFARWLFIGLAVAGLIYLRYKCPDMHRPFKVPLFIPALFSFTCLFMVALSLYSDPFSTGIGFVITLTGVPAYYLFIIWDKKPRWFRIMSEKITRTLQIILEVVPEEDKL
T1 sequence (P08195 1-529 partner): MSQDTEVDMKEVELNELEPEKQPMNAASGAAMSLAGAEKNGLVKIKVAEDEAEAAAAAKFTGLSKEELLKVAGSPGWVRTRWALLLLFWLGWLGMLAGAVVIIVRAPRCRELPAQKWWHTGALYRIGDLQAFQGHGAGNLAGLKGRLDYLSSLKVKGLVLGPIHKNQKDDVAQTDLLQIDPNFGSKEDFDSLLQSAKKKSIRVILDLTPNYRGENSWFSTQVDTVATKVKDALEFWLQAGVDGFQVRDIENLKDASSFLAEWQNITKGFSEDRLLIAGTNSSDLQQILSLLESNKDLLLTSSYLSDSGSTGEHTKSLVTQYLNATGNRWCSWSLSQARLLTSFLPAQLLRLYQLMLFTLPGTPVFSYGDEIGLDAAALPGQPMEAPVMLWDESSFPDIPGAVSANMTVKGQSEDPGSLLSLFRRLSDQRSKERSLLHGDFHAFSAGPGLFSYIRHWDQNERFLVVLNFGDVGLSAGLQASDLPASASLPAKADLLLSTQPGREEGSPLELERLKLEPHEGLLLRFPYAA
As to the kind of experiment: Competition profile indicating uptake via xCT (SLC7A11). In kind it is cell-based. The note with it: co-incubation with 1 mM cold competitors, NCI-H460 cells. How it is done: For determination of the responsible uptake mechanism, NCI-H460 tumor cells were co-incubated with the F-18 labeled tracer and several cold derivatives. These derivatives were used at a concentration of 1 mM, which is a large excess compared to the tracer. L-Glutamic acid, L-cystine, Carboxyphenylglycine (CPG) were used as competitors. In addition, also D-Glutamic acid, as well as L-aspartic acid and D-aspartic acid were used in this competition experiments. […] The same experiments were performed using [^18F]-1, [^18F]-4, [^18F]-9, [^18F]-8, [^18F]-25 and [^18F]-22.

The test system of data set [2] is NCI-H460 tumor. Briefly: PET imaging in NCI-H460 tumor bearing nude-rats. In kind it is in vivo. The note with it: PET ROI analysis, 1 h p.i. How it is done:
c) Beside PET-imaging studies in mice, also the imaging properties of [^18F]-12 in rats were examined. NCI-H460 tumor cells were inoculated into the right flank of nude-rats (RH-Foxn1 nu/nu) 8 to 10 days before the PET study. PET images were acquired at 60 min after injection of approximately 10 MBq for 10 minutes. The H460 tumor was nicely visible (0.9% ID/g as determined by ROI analysis). Beside some minor uptake into the liver and kidneys due to the excretion of the compound, no uptake into other non-target tissues was observed.
To test the imaging properties, compounds from the present invention were evaluated in PET imaging studies using tumor bearing rats. NCI-H460 tumor cells were inoculated into the right flank of nude-rats (RH-Foxn1 nu/nu) 8 to 10 days before the PET study. PET images were acquired at 60 min after injection of approximately 10 MBq for 10 minutes. After the imaging study, region-of-interest (ROI) analysis was performed and activity in tumor, liver and kidney was determined. […] High tumor uptake values of >1% […] in this rat model were obtained with various compounds from the present invention. A favorable clearance profile of all compounds enables excellent tumor detection in PET imaging studies in tumor bearing rats.

Data set [3] relates to NCI-H460 tumor. Briefly: In vivo biodistribution in NCI-H460 tumor bearing mice. The note with it: for T/Blood / T/Muscle: 1 h post injection. How it is done:
(§1) To test the pharmacokinetic properties of compounds from the present invention, all F18-labeled compounds were examined by biodistribution studies in NCI-H460 tumor bearing mice. Female NMRI (nu/nu) mice were inoculated with 5×10^6 NCI-H460 tumor cells 8 to 10 days before the biodistribution studies. 185 kBq of activity of the fluorinated compound was injected and at least n=3 mice were used for every time point. After injection of the F18-labeled compound, mice were sacrificed at defined time-points. All organs were removed and radioactivity was determined using a γ-counter.
To compare the tumor uptake and retention of radioactivity of different ^18F-labeled derivatives from the present invention, biodistribution studies were performed in NCI-H460 tumor bearing NMRI (nu/nu) mice as described above.
To compare the kidney clearance of several ^18F-labeled derivatives from the present invention, biodistribution studies were performed in NCI-H460 tumor bearing female NMRI (nu/nu) mice as described above. […] After 2 h p.i., less than 1% ID/g can be found in the kidneys.
For comparison of pancreas uptake and clearance of several ^18F-labeled derivatives from the present invention, biodistribution studies were performed in NCI-H460 tumor bearing NMRI (nu/nu) mice as described above. […] After 2 h p.i., less than 2% ID/g can be found in the pancreas.
as §1, with “and” for “for every time point. After injection of the F18-labeled compound, mice were”, “time-points raning from 15 min pi up to 2 h p.i.” for “time-points.”, “γ-counter. […] High tumor uptake values of >3% ID/g were obtained with various compounds from the present invention.” for “γ-counter.”

For data set [4], the system named is NCI-H460 (human NSCLC) cells. Briefly: Cell uptake studies: 30 min uptake in H460 cells. The data set is classed as cell-based. As to conditions: 0.25 MBq tracer, PBS 0.1% BSA. The procedure:
For determination of the biological activity, the F18 labeled derivatives were used as tracers in cell uptake experiments. NCI-H460 (human NSCLC) cells, grown adherently in 48 well plates were used for these uptake-experiments. Approximately 100.000 cells were incubated with 0.25 MBq of the tracers for 30 min in PBS-buffer containing 0.1% BSA. After this time, the cell-bound radioactivity was determined using a γ-counter.

Consider `N[C@@H](CC(CCC[18F])C(=O)O)C(=O)O` (stereo partly shown) [4-(3-[^18F]fluoropropyl)glutamic acid], for which, in the data set with A549 tumor (30 min post injection), the Kidney uptake is 6.4 % ID/g and the pancreas uptake is reported as 8.5 % ID/g. Also, the tumor uptake in the data set on A549 tumor (1 h post injection) is given as 1.6 % ID/g.
With `N[C@@H](CCC(Cc1ccc(OCF)cc1)C(=O)O)C(=O)O` (stereo partly drawn) [Example 41, (2S)-2-amino-5-[4-(fluoromethoxy)benzyl]hexanedioic acid], in data set [1], the “blocking of [^18F]-41 uptake” value is recorded as “strong competitor”.
`OC[C@H]1OC(O)[C@H]([18F])[C@@H](O)[C@@H]1O` (stereo partly shown) [FDG, 2-[^18F]fluorodeoxyglucose, reference compound]: in the data set on reactive lymph nodes, the “time-course of activity in the reactive lymph nodes” value was “remained almost constant”.
Consider `N[C@@H](CC(Cc1ccc(OCCC[18F])cc1)C(=O)O)C(=O)O` (stereo partly drawn) [[^18F]-4, 4-[4-(3-[^18F]Fluoropropoxy)benzyl]-L-glutamic acid], for which, at xCT (SLC7A11), the “competition profile / uptake mechanism of the tracer” value is recorded as “identical competition profile”. Besides, in the data set on NCI-H460 tumor [2], the “Kidney (% ID/g at 1 h p.i.)” value was found to be 1.2 % ID/g, the “Liver (% ID/g at 1 h p.i.)” value is recorded as 1.1 % ID/g, the “Tumor (Max % ID/g at 1 h p.i.)” value was 1 % ID/g and the “Tumor (Mean % ID/g at 1 h p.i.)” value is on record as 0.7 % ID/g. In the data set with NCI-H460 tumor [3], the “Kidney (% ID/g at 1 h p.i.)” value was 1.0 ± 0.3 % ID/g, the “Liver (% ID/g at 1 h p.i.)” value is listed as 1.5 ± 0.5 % ID/g, the “Pancreas (% ID/g at 1 h p.i.)” value came to 0.8 ± 0.1 % ID/g and the “Tumor (% ID/g at 1 h p.i.)” value was determined as 2.8 ± 1.8 % ID/g. In the data set with NCI-H460 tumor [3], the “Urine (% ID at 1 h p.i.)” value is reported as 79.8 ± 2.2 % ID, the T/Blood is on record as 14.5 and the T/Muscle was 38.8. In data set [4], the “30 min uptake into H460 cells [%/100.000 cells]” value was 10.0 ± 0.3 %/100.000 cells.
Take `N[C@@H](CC(Cc1ccc(CCC[18F])cc1)C(=O)O)C(=O)O` (stereo partly drawn) [[^18F]-9, 4-[4-(3-[^18F]Fluoropropyl)benzyl]-L-glutamic acid]: the “competition profile / uptake mechanism of the tracer” value at xCT (SLC7A11) was “identical competition profile”. For the same molecule, in the data set with NCI-H460 tumor [3], the “Kidney (% ID/g at 1 h p.i.)” value is recorded as 0.7 ± 0.04 % ID/g, the “Liver (% ID/g at 1 h p.i.)” value was 0.2 ± 0.1 % ID/g, the “Pancreas (% ID/g at 1 h p.i.)” value came to 0.1 ± 0.01 % ID/g and the “Tumor (% ID/g at 1 h p.i.)” value worked out at 1.8 ± 0.9 % ID/g. For the same molecule, in the data set on NCI-H460 tumor [3], the “Urine (% ID at 1 h p.i.)” value is on record as 86.3 ± 7.1 % ID, the T/Blood is 20.5 and the T/Muscle is reported as 61.7. Moreover, the “30 min uptake into H460 cells [%/100.000 cells]” value in data set [4] turned out to be 4.3 ± 0.2 %/100.000 cells.
In the case of `N[C@@H](CC(Cc1ccc(O[C@H]2C[C@@H]([18F])C2)cc1)C(=O)O)C(=O)O` (stereo partly drawn) [[^18F]-22, 4-{4-[(cis-3-[^18F]Fluorocyclobutyl)oxy]benzyl}-L-glutamic acid], the “competition profile / uptake mechanism of the tracer” value on xCT (SLC7A11) is “identical competition profile”. In the data set on NCI-H460 tumor [2], the “Kidney (% ID/g at 1 h p.i.)” value amounted to 0.5 % ID/g, the “Liver (% ID/g at 1 h p.i.)” value is recorded as 0.6 % ID/g, the “Tumor (Max % ID/g at 1 h p.i.)” value came to 0.9 % ID/g and the “Tumor (Mean % ID/g at 1 h p.i.)” value is listed as 0.3 % ID/g. In addition, in the data set on NCI-H460 tumor [3], the “Kidney (% ID/g at 1 h p.i.)” value worked out at 1.8 ± 0.6 % ID/g, the “Liver (% ID/g at 1 h p.i.)” value was 4.1 ± 0.8 % ID/g, the “Pancreas (% ID/g at 1 h p.i.)” value is 0.63 ± 0.04 % ID/g and the “Tumor (% ID/g at 1 h p.i.)” value is reported as 1.3 ± 0.5 % ID/g. Moreover, in the data set on NCI-H460 tumor [3], the “Urine (% ID at 1 h p.i.)” value is listed as 64.9 ± 4.3 % ID, the T/Blood worked out at 5.1 and the T/Muscle is reported as 32.3. For the same molecule, in data set [4], the “30 min uptake into H460 cells [%/100.000 cells]” value is listed as 4.2 ± 0.1 %/100.000 cells.
`N[C@@H](C[C@H](CCCc1ccc(OCC[18F])cc1)C(=O)O)C(=O)O` [[^18F]-25, (4S)-4-{3-[4-(2-[^18F]Fluoroethoxy)phenyl]propyl}-L-glutamic acid]: the “competition profile / uptake mechanism of the tracer” value on xCT (SLC7A11) is given as “identical competition profile”. Moreover, in the data set with NCI-H460 tumor [3], the “Kidney (% ID/g at 1 h p.i.)” value is given as 0.2 ± 0.05 % ID/g, the “Liver (% ID/g at 1 h p.i.)” value is on record as 0.2 ± 0.1 % ID/g, the “Pancreas (% ID/g at 1 h p.i.)” value was determined as 0.04 ± 0.01 % ID/g and the “Tumor (% ID/g at 1 h p.i.)” value is on record as 0.5 ± 0.1 % ID/g. Further, in the data set with NCI-H460 tumor [3], the “Urine (% ID at 1 h p.i.)” value is recorded as 86.6 ± 4.4 % ID, the T/Blood stood at 9.7 and the T/Muscle is 32.2. Moreover, the “30 min uptake into H460 cells [%/100.000 cells]” value in data set [4] was 3.1 ± 01 %/100.000 cells.
